For the assay, the system named is L1210 leukemia ip in BDF1 mice, survival T/C. Kind of assay: NCI In Vivo Anticancer Drug Screen. Data for tumor model L1210 Leukemia (intraperitoneal) in B6D2F1 (BDF1) mice. The note with it: endpoint: mean survival time, higher = longer survival. Put shortly:
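In this screen, tumor-bearing mice given compound are compared to those given vehicle, and their survival values are reported as a treated-to-control quotient.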

The mark [1] stands for this setting: dose: 100.0 mg/kg/injection, schedule: Q01DX009 (ip), vehicle: Klucel (hydroxypropylcellulose) (HPC).
The mark [2] stands for this setting: dose: 100.0 mg/kg/injection, schedule: Q04DX003 (ip), vehicle: Klucel (hydroxypropylcellulose) (HPC).
Where [3] appears, read: dose: 200.0 mg/kg/injection, schedule: Q01DX009 (ip), vehicle: Klucel (hydroxypropylcellulose) (HPC).
Setting [4] is: dose: 200.0 mg/kg/injection, schedule: Q04DX003 (ip), vehicle: Klucel (hydroxypropylcellulose) (HPC).
The mark [5] stands for this setting: dose: 400.0 mg/kg/injection, schedule: Q01DX009 (ip), vehicle: Klucel (hydroxypropylcellulose) (HPC).
Where [6] appears, read: dose: 400.0 mg/kg/injection, schedule: Q04DX003 (ip), vehicle: Klucel (hydroxypropylcellulose) (HPC).
[7] abbreviates: dose: 100.0 mg/kg/injection, schedule: Q01DX009 (ip), vehicle: saline.
[8] abbreviates: dose: 200.0 mg/kg/injection, schedule: Q01DX009 (ip), vehicle: saline.
Setting [9] is: dose: 400.0 mg/kg/injection, schedule: Q01DX009 (ip), vehicle: saline.
Where [10] appears, read: dose: 25.0 mg/kg/injection, schedule: Q01DX001 (ip), vehicle: Klucel (hydroxypropylcellulose) (HPC).
Setting [11] is: dose: 50.0 mg/kg/injection, schedule: Q01DX001 (ip), vehicle: Klucel (hydroxypropylcellulose) (HPC).
Setting [12] is: dose: 100.0 mg/kg/injection, schedule: Q01DX001 (ip), vehicle: Klucel (hydroxypropylcellulose) (HPC).
The mark [13] stands for this setting: dose: 100.0 mg/kg/injection, schedule: Q04DX003 (ip), vehicle: saline.
Where [14] appears, read: dose: 200.0 mg/kg/injection, schedule: Q04DX003 (ip), vehicle: saline.
[15] abbreviates: dose: 400.0 mg/kg/injection, schedule: Q04DX003 (ip), vehicle: saline.

Where “and” joins values, the source holds several entries; their conditions need not be identical. Equal entries are not always repeated. Inconclusive results and toxic doses are left out.

This is an account of results in PubChem BioAssay AID248 (DTP/NCI, 2004).

As to `Cc1ccc(S(=O)(=O)N/N=C\c2cc(Cl)ccc2O)cc1`, the T/C runs as follows: under setting [1], 105 % of control; under setting [2], 100 % of control; under setting [3], 100 % of control; under setting [4], 103 % of control; under setting [5], 103 % of control; under setting [6], 100 % of control.

For `Cc1ccc(-n2c(O)c(N=Nc3ccc(Cl)cc3)c(=O)n(-c3ccc(I)cc3)c2=S)cc1`, the T/C runs as follows: (dose: 37.5 mg/kg/injection, schedule: Q01DX001 (ip), vehicle: Klucel (hydroxypropylcellulose) (HPC)) 92 % of control; (dose: 75.0 mg/kg/injection, schedule: Q01DX001 (ip), vehicle: Klucel (hydroxypropylcellulose) (HPC)) 97 % of control; (dose: 150.0 mg/kg/injection, schedule: Q01DX001 (ip), vehicle: Klucel (hydroxypropylcellulose) (HPC)) 100 % of control.

For `N=C(N)Cc1ccc(CCc2ccc(CC(=N)N)cc2)cc1`, the T/C reads like this: (dose: 12.5 mg/kg/injection, schedule: Q01DX Z (oral), vehicle: saline) 97 % of control; (dose: 25.0 mg/kg/injection, schedule: Q01DX Z (oral), vehicle: saline) 100 % of control; (dose: 50.0 mg/kg/injection, schedule: Q01DX Z (oral), vehicle: saline) 97 % of control; (dose: 100.0 mg/kg/injection, schedule: Q01DX Z (oral), vehicle: saline) 100 % of control.

For the compound `O=[N+]([O-])c1cccc(/C=C/CCOc2ccccc2)c1`, the T/C reads like this: (dose: 100.0 mg/kg/injection, schedule: Q01DX009 (sc), vehicle: olive oil, sesame oil, peanut oil) 97 % of control; (dose: 100.0 mg/kg/injection, schedule: Q04DX003 (sc), vehicle: olive oil, sesame oil, peanut oil) 101 % of control; (dose: 200.0 mg/kg/injection, schedule: Q01DX009 (sc), vehicle: olive oil, sesame oil, peanut oil) 114 % of control; (dose: 200.0 mg/kg/injection, schedule: Q04DX003 (sc), vehicle: olive oil, sesame oil, peanut oil) 100 % of control; (dose: 400.0 mg/kg/injection, schedule: Q01DX009 (sc), vehicle: olive oil, sesame oil, peanut oil) 109 % of control; (dose: 400.0 mg/kg/injection, schedule: Q04DX003 (sc), vehicle: olive oil, sesame oil, peanut oil) 103 % of control.

For `COc1cc(C)c(Cl)c(C)c1C#CC(=O)O`, the T/C runs as follows: (dose: 75.0 mg/kg/injection, schedule: Q01DX009 (ip), vehicle: Klucel (hydroxypropylcellulose) (HPC)) 101 % of control; (dose: 150.0 mg/kg/injection, schedule: Q01DX009 (ip), vehicle: Klucel (hydroxypropylcellulose) (HPC)) 100 % of control.

For the compound `CCN(CC)C(=O)N1CCCCC1`, the T/C under setting [7] is 101 % of control; the T/C (dose: 100.0 mg/kg/injection, schedule: Q04DX002 (ip), vehicle: saline) is 97 % of control; the T/C under setting [8] was 92 % of control; the T/C (dose: 200.0 mg/kg/injection, schedule: Q04DX002 (ip), vehicle: saline) is 100 % of control; the T/C (dose: 400.0 mg/kg/injection, schedule: Q04DX002 (ip), vehicle: saline) was 95 % of control.

For `O=[N+]([O-])c1ccc2c(c1)C(C(Cl)(Cl)Cl)OC(C(Cl)(Cl)Cl)O2` (configuration not stated), the T/C under setting [1] is 95 % of control; the T/C under setting [2] was 96 % of control; the T/C under setting [3] was 95 % of control; the T/C under setting [4] is 93 % of control; the T/C under setting [5] was 95 % of control; the T/C under setting [6] was 95 % of control.

For `COc1ccc(C2C=C(C)Oc3c2c(=O)oc2ccccc32)cc1OC` (configuration not stated), the T/C reads like this: (dose: 6.25 mg/kg/injection, schedule: Q01DX009 (ip), vehicle: water) 96 % of control; (dose: 12.5 mg/kg/injection, schedule: Q01DX009 (ip), vehicle: water) 98 % of control; (dose: 25.0 mg/kg/injection, schedule: Q01DX009 (ip), vehicle: water) 100 % of control and 91 % of control; (dose: 50.0 mg/kg/injection, schedule: Q01DX009 (ip), vehicle: water) 86 % of control.

Take `CS(=O)(=O)OCCN(CCOS(C)(=O)=O)c1ccc(C=Nc2cc(Cl)c(O)c(Cl)c2)cc1`: the T/C (dose: 20.0 mg/kg/injection, schedule: Q04DX003 (ip), vehicle: Klucel (hydroxypropylcellulose) (HPC)) is 107 % of control; the T/C (dose: 40.0 mg/kg/injection, schedule: Q04DX003 (ip), vehicle: Klucel (hydroxypropylcellulose) (HPC)) was 120 % of control; the T/C (dose: 80.0 mg/kg/injection, schedule: Q04DX003 (ip), vehicle: Klucel (hydroxypropylcellulose) (HPC)) is 86 % of control; the T/C under setting [2] was 110 % of control.

On to `O=C(N/N=C\c1cc(Cl)ccc1[N+](=O)[O-])c1ccccc1`, for which the T/C by setting is: under setting [2], 97 % of control; under setting [4], 97 % of control; under setting [6], 103 % of control.

As to `NC(N)=NCCCC(N=Cc1ccccc1)C(=O)O` (configuration not stated), the T/C runs as follows: under setting [7], 97 % of control; under setting [8], 101 % of control; under setting [9], 98 % of control.

As to `CN(C)c1ccc(/C=N\NC(=O)N/N=C/c2ccc(N(C)C)cc2)cc1`, the T/C runs as follows: under setting [10], 92 % of control; under setting [11], 97 % of control; under setting [12], 97 % of control and 90 % of control.

As to `COC(=O)c1cn[nH]c1/N=N/N(C)CCO`, the T/C was 113 % of control (dose: 100.0 mg/kg/injection, schedule: Q01DX001 (ip), vehicle: saline); 119 % of control under setting [13]; 117 % of control (dose: 200.0 mg/kg/injection, schedule: Q01DX001 (ip), vehicle: saline); 163 % of control under setting [8]; 119 % of control under setting [14]; 107 % of control (dose: 400.0 mg/kg/injection, schedule: Q01DX001 (ip), vehicle: saline). For the same compound, the T/C under setting [15] was 119 % of control.

On to `COC(=O)c1cccn1C(=O)c1ccccc1[N+](=O)[O-]`, for which the T/C (dose: 50.0 mg/kg/injection, schedule: Q04DX002 (ip), vehicle: other) was 105 % of control; the T/C (dose: 100.0 mg/kg/injection, schedule: Q04DX002 (ip), vehicle: other) was 97 % of control; the T/C (dose: 200.0 mg/kg/injection, schedule: Q04DX002 (ip), vehicle: other) was 94 % of control.

Take `Cc1nccn1CC(=O)c1ccccc1`: the T/C runs as follows: under setting [10], 102 % of control; (dose: 25.0 mg/kg/injection, schedule: Q01DX009 (ip), vehicle: Klucel (hydroxypropylcellulose) (HPC)) 91 % of control; (dose: 25.0 mg/kg/injection, schedule: Q04DX003 (ip), vehicle: Klucel (hydroxypropylcellulose) (HPC)) 100 % of control; under setting [11], 113 % of control; (dose: 50.0 mg/kg/injection, schedule: Q01DX009 (ip), vehicle: Klucel (hydroxypropylcellulose) (HPC)) 94 % of control and 108 % of control; (dose: 50.0 mg/kg/injection, schedule: Q04DX003 (ip), vehicle: Klucel (hydroxypropylcellulose) (HPC)) 103 % of control. The T/C is 95 % of control under setting [12]; 97 % of control under setting [1]; 96 % of control and 106 % of control (dose: 100.0 mg/kg/injection, schedule: Q04DX002 (ip), vehicle: Klucel (hydroxypropylcellulose) (HPC)); 94 % of control under setting [2]; 101 % of control (dose: 200.0 mg/kg/injection, schedule: Q04DX002 (ip), vehicle: Klucel (hydroxypropylcellulose) (HPC)).

As for `CCOC(=O)C(C)(OCC)OCC`, the T/C runs as follows: under setting [7], 103 % of control; (dose: 100.0 mg/kg/injection, schedule: Q01DX009 (ip), vehicle: water) 100 % of control; under setting [13], 109 % of control; (dose: 100.0 mg/kg/injection, schedule: Q04DX003 (ip), vehicle: water) 97 % of control; under setting [8], 96 % of control; (dose: 200.0 mg/kg/injection, schedule: Q01DX009 (ip), vehicle: water) 100 % of control. Besides, the T/C reads like this: under setting [14], 96 % of control; (dose: 200.0 mg/kg/injection, schedule: Q04DX003 (ip), vehicle: water) 101 % of control; under setting [9], 88 % of control; (dose: 400.0 mg/kg/injection, schedule: Q01DX009 (ip), vehicle: water) 91 % of control; under setting [15], 102 % of control; (dose: 400.0 mg/kg/injection, schedule: Q04DX003 (ip), vehicle: water) 97 % of control.
